# Source: ChEMBL document CHEMBL5120939, “Novel Isoindolinone-Based Analogs of the Natural Cyclic Peptide Fenestin A: Synthesis and Antitumor Activity” (ACS Med Chem Lett, 2022)
# Columns and labels:
# Assay type in all cases: functional
# [1] = test system: HeLa; test: Induction of mitochondrial membrane potential loss in human HeLa cells assessed as decrease in fluorescence intensity […] at 24.6 uM by Rhodamine 123 staining based flow cytometric analysis (reference value: 58.0%); set-up: scale not given: the % may be the effect or the level left
# [2] = test system: HeLa; test: Induction of cell cycle arrest in human HeLa cells assessed as 4N cells at 12.3 uM incubated for 12 hrs by RNAse A/PI staining based flow cytometric analysis (reference value: 5.37%)
# [3] = test system: HeLa; test: Induction of cell cycle arrest in human HeLa cells assessed as accumulation at G2/M phase at 6.2 uM by RNAse A/PI staining based flow cytometric analysis relative to control
# [4] = test system: HeLa; test: Induction of apoptosis in human HeLa cells assessed as late apoptotic cells at 26.1 uM incubated for 48 hrs by annexinV-FITC/propidium iodide staining based flow cytometry analysis (reference value: 0.1%)
# [5] = test system: HeLa; test: Induction of cell cycle arrest in human HeLa cells assessed as >4N cells at 12.3 uM incubated for 48 hrs by RNAse A/PI staining based flow cytometric analysis (reference value: 2.61%)
# [6] = test system: HeLa; test: Induction of cell cycle arrest in human HeLa cells assessed as 2N cells at 12.3 uM incubated for 48 hrs by RNAse A/PI staining based flow cytometric analysis (reference value: 29.9%)
# [7] = test system: HeLa; test: Induction of cell cycle arrest in human HeLa cells assessed as 2N cells at 6.2 uM incubated for 48 hrs by RNAse A/PI staining based flow cytometric analysis (reference value: 29.9%)
# [8] = test system: HeLa; test: Induction of apoptosis in human HeLa cells assessed as necrotic cells at 19.6 uM incubated for 48 hrs by annexinV-FITC/propidium iodide staining based flow cytometry analysis (reference value: 0.0%)
# [9] = test system: HeLa; test: Induction of cell cycle arrest in human HeLa cells assessed as accumulation at G2/M phase at 24.6 uM by RNAse A/PI staining based flow cytometric analysis relative to control
# [10] = test system: HeLa; test: Induction of cell cycle arrest in human HeLa cells assessed as >4N cells at 6.2 uM incubated for 48 hrs by RNAse A/PI staining based flow cytometric analysis (reference value: 2.61%)
# [11] = test system: HeLa; test: Induction of apoptosis in human HeLa cells assessed as early apoptotic cells at 19.6 uM incubated for 48 hrs by annexinV-FITC/propidium iodide staining based flow cytometry analysis (reference value: 0.1%)
# [12] = test system: HeLa; test: Induction of cell cycle arrest in human HeLa cells assessed as <2N cells at 12.3 uM incubated for 24 hrs by RNAse A/PI staining based flow cytometric analysis (reference value: 41.6%)
# [13] = test system: HeLa; test: Induction of apoptosis in human HeLa cells assessed as viable cells at 19.6 uM incubated for 48 hrs by annexinV-FITC/propidium iodide staining based flow cytometry analysis (reference value: 99.8%); conditions: read-out: Activity
# [14] = test system: HeLa; test: Induction of cell cycle arrest in human HeLa cells assessed as S phase cells at 12.3 uM incubated for 24 hrs by RNAse A/PI staining based flow cytometric analysis (reference value: 20.5%)
# [15] = test system: HeLa; test: Induction of cell cycle arrest in human HeLa cells assessed as 2N cells at 24.6 uM incubated for 48 hrs by RNAse A/PI staining based flow cytometric analysis (reference value: 29.9%)
# [16] = test system: HeLa; test: Induction of apoptosis in human HeLa cells assessed as late apoptotic cells at 13.2 uM incubated for 48 hrs by annexinV-FITC/propidium iodide staining based flow cytometry analysis (reference value: 0.1%)
# [17] = test system: HeLa; test: Induction of cell cycle arrest in human HeLa cells assessed as S phase cells at 6.2 uM incubated for 48 hrs by RNAse A/PI staining based flow cytometric analysis (reference value: 20.5%)
# [18] = test system: HeLa; test: Induction of cell cycle arrest in human HeLa cells assessed as 4N cells at 24.6 uM incubated for 48 hrs by RNAse A/PI staining based flow cytometric analysis (reference value: 5.37%)
# [19] = test system: HeLa; test: Induction of mitochondrial membrane potential loss in human HeLa cells assessed as decrease in fluorescence intensity […] at 6.2 uM by Rhodamine 123 staining based flow cytometric analysis (reference value: 58.0%); set-up: scale not given: the % may be the effect or the level left
# [20] = test system: HeLa; test: Induction of cell cycle arrest in human HeLa cells assessed as 2N cells at 12.3 uM incubated for 24 hrs by RNAse A/PI staining based flow cytometric analysis (reference value: 29.9%)
# [21] = test system: HeLa; test: Induction of cell cycle arrest in human HeLa cells assessed as 2N cells at 12.3 uM incubated for 12 hrs by RNAse A/PI staining based flow cytometric analysis (reference value: 29.9%)
# [22] = test system: HeLa; test: Induction of cell cycle arrest in human HeLa cells assessed as 4N cells at 12.3 uM incubated for 48 hrs by RNAse A/PI staining based flow cytometric analysis (reference value: 5.37%)
# [23] = test system: HeLa; test: Induction of cell cycle arrest in human HeLa cells assessed as >4N cells at 12.3 uM incubated for 12 hrs by RNAse A/PI staining based flow cytometric analysis (reference value: 2.61%)
# [24] = test system: HeLa; test: Induction of cell cycle arrest in human HeLa cells assessed as S phase cells at 12.3 uM incubated for 48 hrs by RNAse A/PI staining based flow cytometric analysis (reference value: 20.5%)
# [25] = test system: HeLa; test: Induction of cell cycle arrest in human HeLa cells assessed as >4N cells at 24.6 uM incubated for 48 hrs by RNAse A/PI staining based flow cytometric analysis (reference value: 2.61%)
# [26] = test system: HeLa; test: Induction of cell cycle arrest in human HeLa cells assessed as 4N cells at 6.2 uM incubated for 48 hrs by RNAse A/PI staining based flow cytometric analysis (reference value: 5.37%)
# [27] = test system: HeLa; test: Induction of cell cycle arrest in human HeLa cells assessed as accumulation at G2/M phase at 12.3 uM by RNAse A/PI staining based flow cytometric analysis relative to control
# [28] = test system: HeLa; test: Induction of apoptosis in human HeLa cells assessed as early apoptotic cells at 26.1 uM incubated for 48 hrs by annexinV-FITC/propidium iodide staining based flow cytometry analysis (reference value: 0.1%)
# [29] = test system: HeLa; test: Induction of mitochondrial membrane potential loss in human HeLa cells assessed as decrease in fluorescence intensity […] at 12.3 uM by Rhodamine 123 staining based flow cytometric analysis (reference value: 58.0%); set-up: scale not given: the % may be the effect or the level left
# [30] = test system: HeLa; test: Induction of cell cycle arrest in human HeLa cells assessed as 4N cells at 12.3 uM incubated for 24 hrs by RNAse A/PI staining based flow cytometric analysis (reference value: 5.37%)
# [31] = test system: HeLa; test: Induction of apoptosis in human HeLa cells assessed as late apoptotic cells at 19.6 uM incubated for 48 hrs by annexinV-FITC/propidium iodide staining based flow cytometry analysis (reference value: 0.1%)
# [32] = test system: HeLa; test: Induction of cell cycle arrest in human HeLa cells assessed as <2N cells at 12.3 uM incubated for 48 hrs by RNAse A/PI staining based flow cytometric analysis (reference value: 41.6%)
smiles,measurement,setting,value
CC[C@H](C)[C@@H]1NC(=O)[C@H](CC(C)C)NC(=O)[C@@H]2CSCN2C(=O)[C@@H]2CSCN2C(=O)CN2C(=O)c3ccccc3[C@@]2(O)CN(Cc2ccccc2)C1=O,Activity,[1],19.4%
same,Activity,[2],16.8%
same,Activity,[3],17%
same,Activity,[4],6.4%
same,Activity,[5],0%
same,Activity,[6],28.1%
same,Activity,[7],24.9%
same,Activity,[8],1.3%
same,Activity,[9],47.5%
same,Activity,[10],9.53%
same,Activity,[11],23.3%
same,Activity,[12],33%
same,viability at 19.6 µM,[13],68.6%
same,Activity,[14],10.2%
same,Activity,[15],28.8%
same,Activity,[16],7.3%
same,Activity,[17],11.1%
same,Activity,[18],47.5%
same,Activity,[19],52.6%
same,Activity,[20],20.6%
same,Activity,[21],28.8%
same,Activity,[22],35.7%
same,Activity,[23],9.83%
same,Activity,[24],21.3%
same,Activity,[25],3.51%
same,Activity,[26],17%
same,Activity,[27],35.7%
same,Activity,[28],34.6%
same,Activity,[29],32.3%
same,Activity,[30],25.1%
same,Activity,[31],6.7%
same,Activity,[32],14.9%
